Measurements as given in US20210155715A1, “USE OF TRYPTOPHAN DERIVATIVES AND L-METHIONINE FOR PROTEIN FORMULATION” (Genentech, Inc., priority 2018, published 2021).

How the values were obtained:
[1] = target: T1, neurokinin-1 (NK-1) receptor (Homo sapiens, UniProt P25103); test: Binding to the NK-1 receptor in U373MG human astrocytoma cells; details: room temperature
T1 construct: U373MG human astrocytoma cells which endogenously express the receptor; endogenous in cells; host or cells: U373MG human astrocytoma cells
T1 sequence (P25103 whole entry): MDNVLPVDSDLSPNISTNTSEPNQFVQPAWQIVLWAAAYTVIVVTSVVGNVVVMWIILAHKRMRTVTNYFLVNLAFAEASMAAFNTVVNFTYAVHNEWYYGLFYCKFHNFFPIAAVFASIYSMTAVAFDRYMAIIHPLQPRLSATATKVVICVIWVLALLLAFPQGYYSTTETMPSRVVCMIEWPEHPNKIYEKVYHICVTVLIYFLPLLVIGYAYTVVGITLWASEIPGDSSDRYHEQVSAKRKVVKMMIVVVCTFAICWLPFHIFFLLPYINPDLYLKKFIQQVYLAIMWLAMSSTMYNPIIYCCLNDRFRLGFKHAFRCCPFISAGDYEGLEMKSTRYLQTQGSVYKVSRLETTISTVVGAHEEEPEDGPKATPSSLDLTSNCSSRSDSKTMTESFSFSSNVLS
Procedure: The activity of NAT was assessed in binding, cellular and nuclear receptor functional and tissue bioassays. Binding to the neurokinin-1 (NK-1) receptor was assessed in U373MG human astrocytoma cells which endogenously express the receptor (Eistetter et al. (1992) Functional characterization of Neurokinin-1 receptors on human U373MG astrocytoma cells. Glia 6(2):89-95; Heuillet et al. (1993) J. Neurochem 60(3):868-876), and compared to the reference agonist [Sar^9, Met(O2)^11]-SP or to the reference antagonist L 733,060. NAT or the reference compounds were incubated with U373MG cells at room temperature; all concentrations were assayed in duplicate.

[2] = AAPH chemical oxidation stress of mAb1/mAb2, LC-MS peptide mapping; format: physicochemical; details: 0.3 mM NAT
Description: Antibodies were subjected to AAPH stress followed by peptide mapping to identify the CDR and Fc residues that were sensitive to oxidation (Dion et al., manuscript in preparation). […] If a residue oxidized by >5% relative to the control, it was deemed sensitive and monitored throughout the course of the experiments. […] In brief, samples were denatured, reduced, carboxylmethylated and subjected to trypsin digestion. Peptides were separated on an Acquity UPLC Peptide CSH C18 column using a water/acetonitrile/formic acid gradient on a Waters Acquity H-Class UHPLC coupled to a Thermo Q Exactive Plus high-resolution mass spectrometer. Data was processed using Thermo Scientific PepFinder™ and Xcalibur™ software. Integration was performed on extracted ion chromatograms of monoisotopic m/z using the most abundant charge state(s) for the native and oxidized peptides. The percent oxidation was calculated by dividing the peak area of the oxidized peptides by the summed peak area of the native and oxidized peptides. The major tryptophan degradation products (+16 and +32, in addition to +4, +20, and +48 for highly oxidized sites) were summed and used to calculate tryptophan oxidation. Only methionine sulfoxide (M+16) was used to calculate methionine oxidation, as methionine sulfone (M+32) was not observed under these conditions. […]

[3] = Light exposure stress (high intensity UV) of mAb1/mAb2, LC-MS peptide mapping; format: physicochemical; details: 5 mM L-Methionine
Description: Antibodies were subjected to AAPH stress followed by peptide mapping to identify the CDR and Fc residues that were sensitive to oxidation (Dion et al., manuscript in preparation). Kabat numbering was used to identify variable fragment (Fv) residues, while EU nomenclature (Edelman et al. (1969) Proc Natl Acad Sci USA 63(1):78-85) was used to identify Fc residues. If a residue oxidized by >5% relative to the control, it was deemed sensitive and monitored throughout the course of the experiments. Peptide mapping and analysis information was as reported in Dion et al. (manuscript in preparation). In brief, samples were denatured, reduced, carboxylmethylated and subjected to trypsin digestion. […] The percent oxidation was calculated by dividing the peak area of the oxidized peptides by the summed peak area of the native and oxidized peptides. […]
Proteins (10 mg/mL) were exposed to light stress with a high intensity UV component (300 kilolux-hours visible light and 50 W·h/m^2 of near UV (320-400 nm) light over a 6-hour period) at various NAT concentrations (0-1 mM NAT) to determine the efficacy of NAT as an antioxidant against photo-oxidation (FIGS. 3A-B). […] Residues that were determined to be insensitive to light oxidation under antioxidant-free conditions remained insensitive to light when NAT was added to the formulation under the tested conditions.

IC50 for agonist binding to the NK-1 receptor [1]	IC50 for antagonist binding to the NK-1 receptor [1]	oxidation of CDR and Fv tryptophan residues [2] [%]	impact on oxidation of CDR and Fv residues ([3]; alone or with 0.3 mM NAT, UV light)	UV light-induced Fc methionine oxidation ([3]; mAb1 and mAb2)	Structure (SMILES)
could not be calculated	could not be calculated	< 10	–	–	CC(=O)NC(Cc1c[nH]c2ccccc12)C(=O)O (racemic) [NAT, N-acetyl-DL-tryptophan]
–	–	–	no beneficial impact	improved	CSCC[C@H](N)C(=O)O [L-Methionine, L-methionine]
